Laboratory results taken from article PMC5218480 (PLoS ONE, 2017).

Test system: MV-4-11 cells
Assay: Gene expression microarray analysis (Affymetrix PrimeView) and GSEA
Assay type: cell-based, human
Parameters: RFU PODN (11730768_x_at) / Fold change /veh PODN (11730768_x_at) / RFU LINC00158 (11744669_a_at) / Fold change /veh LINC00158 (11744669_a_at) / RFU DUSP10 (11751237_a_at) / Fold change /veh DUSP10 (11751237_a_at) / RFU ID3 (11757404_x_at) / Fold change /veh ID3 (11757404_x_at) / RFU PLEKHG5 (11737974_s_at) / Fold change /veh PLEKHG5 (11737974_s_at) / RFU LRRC4B (11730491_at) / Fold change /veh LRRC4B (11730491_at) / RFU GIMAP4 (11747438_a_at) / Fold change /veh GIMAP4 (11747438_a_at) / RFU KRT8 (11758183_x_at) / Fold change /veh KRT8 (11758183_x_at) / RFU CNN1 (11734310_a_at) / Fold change /veh CNN1 (11734310_a_at) / RFU VPS37D (11726825_at) / Fold change /veh VPS37D (11726825_at) / RFU C10orf10 (11716522_x_at) / Fold change /veh C10orf10 (11716522_x_at) / RFU KIR2DL2 /// KIR2DL4 /// KIR2DL5A /// KIR2DL5B /// KIR2DS1 /// KIR2DS2 /// KIR2DS3 /// KIR2DS4 /// KIR3DL3 /// KIR3DL3 /// KIR3DS1 (11738374_at) / Fold change /veh KIR2DL2 /// KIR2DL4 /// KIR2DL5A /// KIR2DL5B /// KIR2DS1 /// KIR2DS2 /// KIR2DS3 /// KIR2DS4 /// KIR3DL3 /// KIR3DL3 /// KIR3DS1 (11738374_at) / RFU C1QL1 (11718748_at) / Fold change /veh C1QL1 (11718748_at) / RFU TMPRSS4 (11747572_a_at) / Fold change /veh TMPRSS4 (11747572_a_at) / RFU HAMP (11756126_x_at) / Fold change /veh HAMP (11756126_x_at) / RFU RNFT2 (11725882_a_at) / Fold change /veh RNFT2 (11725882_a_at) / RFU NR4A2 (11747474_a_at) / Fold change /veh NR4A2 (11747474_a_at) / RFU ABCC12 (11746883_a_at) / Fold change /veh ABCC12 (11746883_a_at) / RFU TMEM136 (11760407_x_at) / Fold change /veh TMEM136 (11760407_x_at) / RFU CLDN22 /// WWC2 (11732394_at) / Fold change /veh CLDN22 /// WWC2 (11732394_at) / RFU HLA-DPB1 (11760878_x_at) / Fold change /veh HLA-DPB1 (11760878_x_at) / RFU SPINT1 (11716480_a_at) / Fold change /veh SPINT1 (11716480_a_at) / RFU GAP43 (11754022_s_at) / Fold change /veh GAP43 (11754022_s_at) / RFU A4GNT (11735810_at) / Fold change /veh A4GNT (11735810_at) / RFU PRB3 (11715151_x_at) / Fold change /veh PRB3 (11715151_x_at) / RFU TUBB4B (11761932_at) / Fold change /veh TUBB4B (11761932_at) / RFU CAPN14 (11732068_a_at) / Fold change /veh CAPN14 (11732068_a_at) / RFU TMCC2 (11721928_a_at) / Fold change /veh TMCC2 (11721928_a_at) / RFU IRGQ (11745062_a_at) / Fold change /veh IRGQ (11745062_a_at) / RFU FAM174B (11720279_a_at) / Fold change /veh FAM174B (11720279_a_at) / RFU TMPRSS4 (11748680_a_at) / Fold change /veh TMPRSS4 (11748680_a_at) / RFU FAM212B (11763350_a_at) / Fold change /veh FAM212B (11763350_a_at) / RFU PLEKHG5 (11743358_a_at) / Fold change /veh PLEKHG5 (11743358_a_at) / RFU ZSCAN30 (11745921_a_at) / Fold change /veh ZSCAN30 (11745921_a_at) / RFU CMKLR1 (11741424_a_at) / Fold change /veh CMKLR1 (11741424_a_at) / RFU LOC101060620 /// MAPK8IP1 (11723275_at) / Fold change /veh LOC101060620 /// MAPK8IP1 (11723275_at) / RFU SPTSSB (11747773_x_at) / Fold change /veh SPTSSB (11747773_x_at) / RFU PRSS12 (11739890_at) / Fold change /veh PRSS12 (11739890_at) / RFU BIN1 (11741810_x_at) / Fold change /veh BIN1 (11741810_x_at) / RFU WNT11 (11732464_a_at) / Fold change /veh WNT11 (11732464_a_at) / RFU C10orf10 (11716521_a_at) / Fold change /veh C10orf10 (11716521_a_at) / RFU C5orf56 (11738089_at) / Fold change /veh C5orf56 (11738089_at) / RFU CYB561 (11721691_x_at) / Fold change /veh CYB561 (11721691_x_at) / RFU ANKRD19P (11752326_a_at) / Fold change /veh ANKRD19P (11752326_a_at) / RFU OR2T12 /// OR2T33 /// OR2T8 (11738714_s_at) / Fold change /veh OR2T12 /// OR2T33 /// OR2T8 (11738714_s_at) / RFU VCAN (11748164_a_at) / Fold change /veh VCAN (11748164_a_at) / RFU JSRP1 (11732532_at) / Fold change /veh JSRP1 (11732532_at) / RFU KRTAP10-11 (11738290_x_at) / Fold change /veh KRTAP10-11 (11738290_x_at) / RFU MYO3A (11730013_a_at) / Fold change /veh MYO3A (11730013_a_at) / RFU EBF3 (11725865_a_at) / Fold change /veh EBF3 (11725865_a_at) / RFU CAMK2N1 (11719241_x_at) / Fold change /veh CAMK2N1 (11719241_x_at) / RFU C5orf56 (11738088_a_at) / Fold change /veh C5orf56 (11738088_a_at) / RFU OLFML3 (11715873_a_at) / Fold change /veh OLFML3 (11715873_a_at) / RFU LOC100653217 /// NTM (11731650_a_at) / Fold change /veh LOC100653217 /// NTM (11731650_a_at) / RFU MAPK11 (11762145_a_at) / Fold change /veh MAPK11 (11762145_a_at) / RFU FIZ1 (11724087_x_at) / Fold change /veh FIZ1 (11724087_x_at) / RFU OASL (11726364_x_at) / Fold change /veh OASL (11726364_x_at) / RFU SOX15 (11748057_x_at) / Fold change /veh SOX15 (11748057_x_at) / RFU CD79A (11719716_a_at) / Fold change /veh CD79A (11719716_a_at) / RFU HIST1H1D (11736915_at) / Fold change /veh HIST1H1D (11736915_at) / RFU CASKIN2 (11723855_a_at) / Fold change /veh CASKIN2 (11723855_a_at) / RFU LOC730098 (11760151_x_at) / Fold change /veh LOC730098 (11760151_x_at) / RFU OR4N2 (11742367_at) / Fold change /veh OR4N2 (11742367_at) / RFU PRRT2 (11749266_a_at) / Fold change /veh PRRT2 (11749266_a_at) / RFU SNX32 (11753110_a_at) / Fold change /veh SNX32 (11753110_a_at) / RFU CDHR5 (11726645_a_at) / Fold change /veh CDHR5 (11726645_a_at) / RFU RCAN1 (11760418_a_at) / Fold change /veh RCAN1 (11760418_a_at) / RFU FAM167A (11723789_a_at) / Fold change /veh FAM167A (11723789_a_at) / RFU FAM26E (11764081_at) / Fold change /veh FAM26E (11764081_at) / RFU ISYNA1 (11749810_s_at) / Fold change /veh ISYNA1 (11749810_s_at) / RFU ACY1 (11761880_at) / Fold change /veh ACY1 (11761880_at) / RFU 11764098_at / Fold change /veh 11764098_at / RFU SAMD14 (11745864_x_at) / Fold change /veh SAMD14 (11745864_x_at) / RFU NPB (11741838_a_at) / Fold change /veh NPB (11741838_a_at) / RFU TMPRSS6 (11731388_a_at) / Fold change /veh TMPRSS6 (11731388_a_at) / RFU KRTAP10-2 (11738614_at) / Fold change /veh KRTAP10-2 (11738614_at) / RFU ARHGAP8 /// PRR5-ARHGAP8 (11727945_x_at) / Fold change /veh ARHGAP8 /// PRR5-ARHGAP8 (11727945_x_at) / RFU KRTAP5-7 /// NADSYN1 (11734609_at) / Fold change /veh KRTAP5-7 /// NADSYN1 (11734609_at) / RFU RASL12 (11751679_a_at) / Fold change /veh RASL12 (11751679_a_at) / RFU CDKN2B (11736163_a_at) / Fold change /veh CDKN2B (11736163_a_at) / RFU PRF1 (11729649_at) / Fold change /veh PRF1 (11729649_at) / RFU, ZNF638 /// ZNF638-IT1 / Fold change vs veh, ZNF638 /// ZNF638-IT1 / RFU, PANK3 / Fold change vs veh, PANK3 / RFU, SH3YL1 / Fold change vs veh, SH3YL1 / RFU, ZEB2 / Fold change vs veh, ZEB2 / RFU, NRIP1 / Fold change vs veh, NRIP1 / RFU, PTTG1IP / Fold change vs veh, PTTG1IP / RFU, CAPN2 / Fold change vs veh, CAPN2 / RFU, MED14 / Fold change vs veh, MED14 / RFU, SNORA58 / Fold change vs veh, SNORA58 / RFU, C1orf63 / Fold change vs veh, C1orf63 / RFU, LRRFIP1 / Fold change vs veh, LRRFIP1 / RFU, NDUFAF7 / Fold change vs veh, NDUFAF7 / RFU, SLC12A2 / Fold change vs veh, SLC12A2 / RFU, IBTK / Fold change vs veh, IBTK / RFU, ESF1 / Fold change vs veh, ESF1 / Fold change vs veh, TMEM50B / RFU, TAOK1 / Fold change vs veh, TAOK1 / RFU, ACBD3 / Fold change vs veh, ACBD3 / RFU, TMA16 / Fold change vs veh, TMA16 / RFU, RWDD3 / Fold change vs veh, RWDD3 / RFU, BCAT1 / Fold change vs veh, BCAT1 / RFU, EDEM3 / Fold change vs veh, EDEM3 / RFU, TMEM33 / Fold change vs veh, TMEM33 / RFU, WDR75 / Fold change vs veh, WDR75 / RFU, AHCTF1 / Fold change vs veh, AHCTF1 / RFU, TFRC / Fold change vs veh, TFRC / RFU, ZDHHC17 / Fold change vs veh, ZDHHC17 / RFU, NOM1 / Fold change vs veh, NOM1 / RFU, ARL8B / Fold change vs veh, ARL8B / RFU, ZBTB11 / Fold change vs veh, ZBTB11 / RFU, TAMM41 / Fold change vs veh, TAMM41 / RFU, KIAA1704 /// LOC100996395 / Fold change vs veh, KIAA1704 /// LOC100996395 / RFU, ING1 / Fold change vs veh, ING1 / RFU, TRMT61B / Fold change vs veh, TRMT61B / RFU, FUBP3 / Fold change vs veh, FUBP3 / RFU, TP53 / Fold change vs veh, TP53 / RFU, TNKS2 / Fold change vs veh, TNKS2 / RFU, ZFP14 / Fold change vs veh, ZFP14 / RFU, ACTR2 / Fold change vs veh, ACTR2 / RFU, PPP3R1 / Fold change vs veh, PPP3R1 / RFU, PIK3R1 / Fold change vs veh, PIK3R1 / RFU, HNRNPA1 / Fold change vs veh, HNRNPA1 / RFU, RNF170 / Fold change vs veh, RNF170 / RFU, ZNF28 / Fold change vs veh, ZNF28 / RFU, RNGTT / Fold change vs veh, RNGTT / RFU, OGT / Fold change vs veh, OGT / RFU, BRD1 / Fold change vs veh, BRD1 / RFU, MARS / Fold change vs veh, MARS / RFU, ZNF655 / Fold change vs veh, ZNF655 / RFU, FAHD1 / Fold change vs veh, FAHD1 / RFU, BDP1 / Fold change vs veh, BDP1 / RFU, LRRCC1 / Fold change vs veh, LRRCC1 / RFU, ARID1A / Fold change vs veh, ARID1A / RFU, ZNF146 / Fold change vs veh, ZNF146 / RFU, ZNF330 / Fold change vs veh, ZNF330 / RFU, GPN3 / Fold change vs veh, GPN3 / RFU, C9orf123 / Fold change vs veh, C9orf123 / RFU, N4BP2L2 / Fold change vs veh, N4BP2L2 / RFU, ARFIP1 / Fold change vs veh, ARFIP1 / RFU, FAM179B / Fold change vs veh, FAM179B / RFU, BCL10 / Fold change vs veh, BCL10 / RFU, UHRF1BP1L / Fold change vs veh, UHRF1BP1L / RFU, BET1 / Fold change vs veh, BET1 / RFU, CNOT2 / Fold change vs veh, CNOT2 / RFU, ZNF268 / Fold change vs veh, ZNF268 / Fold change vs veh, ZNF507 / RFU, DGCR2 / Fold change vs veh, DGCR2 / RFU, WDSUB1 / Fold change vs veh, WDSUB1 / Fold change vs veh, HSP90B1 /// MIR3652 / RFU, ADSS / Fold change vs veh, ADSS / RFU, GK / Fold change vs veh, GK / RFU, ZNF148 / Fold change vs veh, ZNF148 / RFU, TAF9 / Fold change vs veh, TAF9 / RFU, SLC1A5 / Fold change vs veh, SLC1A5 / RFU, SLMO2 / Fold change vs veh, SLMO2 / RFU, ABCC4 / Fold change vs veh, ABCC4 / RFU, LOC101060439 /// RAP1B / Fold change vs veh, LOC101060439 /// RAP1B / RFU, RFX7 / Fold change vs veh, RFX7 / RFU, GTPBP10 / Fold change vs veh, GTPBP10 / RFU, CNEP1R1 / Fold change vs veh, CNEP1R1 / RFU, BIVM-ERCC5 /// ERCC5 / Fold change vs veh, BIVM-ERCC5 /// ERCC5 / RFU, ILF3 / Fold change vs veh, ILF3 / RFU 11762660_at / Fold change /veh 11762660_at / RFU VCAN (11757783_s_at) / Fold change /veh VCAN (11757783_s_at) / RFU DDX43 (11728927_at) / Fold change /veh DDX43 (11728927_at) / RFU KRT8 (11758188_x_at) / Fold change /veh KRT8 (11758188_x_at) / RFU NKD1 (11759106_at) / Fold change /veh NKD1 (11759106_at) / RFU SRD5A1 (11742802_a_at) / Fold change /veh SRD5A1 (11742802_a_at) / RFU TPSAB1 /// TPSB2 (11721975_s_at) / Fold change /veh TPSAB1 /// TPSB2 (11721975_s_at) / RFU GSTM3 (11746129_a_at) / Fold change /veh GSTM3 (11746129_a_at) / RFU IL23R (11737362_x_at) / Fold change /veh IL23R (11737362_x_at) / RFU TMEM51 (11727254_a_at) / Fold change /veh TMEM51 (11727254_a_at) / RFU PIWIL2 (11732686_x_at) / Fold change /veh PIWIL2 (11732686_x_at) / RFU ORM1 (11744905_x_at) / Fold change /veh ORM1 (11744905_x_at) / RFU CCDC152 (11743942_at) / Fold change /veh CCDC152 (11743942_at) / RFU ECM1 (11717891_a_at) / Fold change /veh ECM1 (11717891_a_at) / RFU IL23R (11748794_a_at) / Fold change /veh IL23R (11748794_a_at) / RFU TNFAIP8L3 (11732012_x_at) / Fold change /veh TNFAIP8L3 (11732012_x_at) / RFU MBOAT4 (11741988_at) / Fold change /veh MBOAT4 (11741988_at) / RFU 11764193_at / Fold change /veh 11764193_at / RFU TMEM53 (11763286_at) / Fold change /veh TMEM53 (11763286_at) / RFU MAGEB2 (11727129_at) / Fold change /veh MAGEB2 (11727129_at) / RFU TMEM200A (11744735_a_at) / Fold change /veh TMEM200A (11744735_a_at) / RFU CCDC152 (11751479_a_at) / Fold change /veh CCDC152 (11751479_a_at) / RFU FAM211A (11726209_a_at) / Fold change /veh FAM211A (11726209_a_at) / RFU RGS16 (11746705_a_at) / Fold change /veh RGS16 (11746705_a_at) / RFU VCAN (11755009_s_at) / Fold change /veh VCAN (11755009_s_at) / RFU RHOB (11743442_s_at) / Fold change /veh RHOB (11743442_s_at) / RFU RGS16 (11720943_a_at) / Fold change /veh RGS16 (11720943_a_at) / RFU RGS16 (11720944_at) / Fold change /veh RGS16 (11720944_at) / RFU, VPS4B / Fold change vs veh, VPS4B / RFU, CREB1 / Fold change vs veh, CREB1 / RFU, DNAJC13 / Fold change vs veh, DNAJC13 / RFU, GNAQ / Fold change vs veh, GNAQ / RFU, CDK5R1 / Fold change vs veh, CDK5R1 / RFU, ZRANB3 / Fold change vs veh, ZRANB3 / RFU, CUL4A / Fold change vs veh, CUL4A / RFU, CCNY / Fold change vs veh, CCNY / RFU, UFL1 / Fold change vs veh, UFL1 / RFU, COG3 / Fold change vs veh, COG3 / RFU, DIAPH2 / Fold change vs veh, DIAPH2 / RFU, SKA2 / Fold change vs veh, SKA2 / RFU, AFF3 / Fold change vs veh, AFF3 / RFU, LMF1 / Fold change vs veh, LMF1 / RFU, IPO11 / Fold change vs veh, IPO11 / RFU, DFFB / Fold change vs veh, DFFB / RFU, FOXP1 / Fold change vs veh, FOXP1 / RFU, CARD8 / Fold change vs veh, CARD8 / RFU, STRN3 / Fold change vs veh, STRN3 / RFU, ADK / Fold change vs veh, ADK / RFU, RASSF2 / Fold change vs veh, RASSF2 / RFU, WIPF1 / Fold change vs veh, WIPF1 / RFU, LARP1B / Fold change vs veh, LARP1B / RFU, RASA1 / Fold change vs veh, RASA1 / RFU, RB1 / Fold change vs veh, RB1 / RFU, PPFIA1 / Fold change vs veh, PPFIA1 / RFU, MAT2A / Fold change vs veh, MAT2A / RFU, CCT5 / Fold change vs veh, CCT5 / RFU, WDR92 / Fold change vs veh, WDR92 / RFU, CUX1 / Fold change vs veh, CUX1 / RFU, TTC7A / Fold change vs veh, TTC7A / RFU, TMEM135 / Fold change vs veh, TMEM135 / RFU, DEPTOR / Fold change vs veh, DEPTOR / RFU, CPM / Fold change vs veh, CPM / RFU, DNAJB6 / Fold change vs veh, DNAJB6 / RFU, CACNA2D3 / Fold change vs veh, CACNA2D3 / RFU, DTX4 / Fold change vs veh, DTX4 / RFU, TFCP2 / Fold change vs veh, TFCP2 / RFU, GMCL1 /// GMCL1P1 / Fold change vs veh, GMCL1 /// GMCL1P1 / RFU, AEBP2 / Fold change vs veh, AEBP2 / RFU, SNHG1 /// SNORD22 /// SNORD25 /// SNORD26 /// SNORD27 /// SNORD28 /// SNORD29 /// SNORD31 / Fold change vs veh, SNHG1 /// SNORD22 /// SNORD25 /// SNORD26 /// SNORD27 /// SNORD28 /// SNORD29 /// SNORD31 / Fold change (Aza/veh), C12orf56 (ProbeSet 11735607_a_at) / Fold change (ACY-1035/veh), C12orf56 (ProbeSet 11735607_a_at) / Fold change (Aza/veh), FGFR1OP (ProbeSet 11751329_s_at) / Fold change (ACY-1035/veh), FGFR1OP (ProbeSet 11751329_s_at) / Fold change (Aza/veh), VPS36 (ProbeSet 11739960_a_at) / Fold change (ACY-1035/veh), VPS36 (ProbeSet 11739960_a_at) / RFU SYPL1 (11715823_x_at) / Fold change /veh SYPL1 (11715823_x_at) / RFU IGFBP7 (11715501_s_at) / Fold change /veh IGFBP7 (11715501_s_at) / RFU REEP3 (11722064_at) / Fold change /veh REEP3 (11722064_at) / RFU IGLL1 (11728026_x_at) / Fold change /veh IGLL1 (11728026_x_at): dose or concentration left out as unconfirmed
Conditions: ProbeSet 11753234_a_at; LIST B

Nc1ccc(-c2cccs2)cc1NC(=O)c1ccc2c(c1)cc(C1CC1)n2CCN1CCOCC1 [ACY-1035]
Fold change vs veh, TAMM41: 0.90
